“And” between values parts separate entries of the source, which are not always exact repeats. Equal entries are not always repeated.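 A five-concentration, 48-hour dose response in 96-well plates underlies each endpoint, interpolated linearly between surrounding concentrations. GI50 = concentration required for 50% inhibition of growth. TGI is the concentration that stops growth completely.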

Test systems include HL-60(TB) leukemia; HT29 colon; M14 melanoma; NCI-H226 lung; NCI-H460 lung; OVCAR-5 ovarian; UACC-62 melanoma.
What all share (test): DTP human tumour cell line panel, 48 h

By TGI is commonly meant the concentration at which net growth stops. High values mean less potent growth arrest, low ones more potent growth arrest. Turning to `CN(C)C(=Nc1nc(=[N+](C)C)ss1)N(C)C`, the TGI with HL-60(TB) leukemia, with HT29 colon, in the assay on M14 melanoma, in the assay on NCI-H226 lung, with NCI-H460 lung and in the assay on OVCAR-5 ovarian was above 100 µM throughout. In the assay on UACC-62 melanoma, this molecule displayed a TGI above 100 µM.

As for `Cc1cc(-c2ccccc2)nc(Nc2nc3ccccc3o2)n1`, the TGI in the assay on HL-60(TB) leukemia, in the assay with HT29 colon, in the assay on M14 melanoma, with NCI-H226 lung, in the assay with NCI-H460 lung and in the assay on OVCAR-5 ovarian was above 100 µM throughout. Besides, in the assay with UACC-62 melanoma, the TGI was above 100 µM.

`Cc1ccc(NC(=O)C2C(=O)N(c3ccc(C)c(C)c3)C(=O)/C2=N\NC(N)=O)cc1C` (stereo not drawn): the TGI in the assay on HL-60(TB) leukemia, in the assay on HT29 colon, in the assay with M14 melanoma, in the assay with NCI-H226 lung, in the assay on NCI-H460 lung and with OVCAR-5 ovarian was above 100 µM each time. Moreover, the TGI in the assay with UACC-62 melanoma is above 100 µM.

Take `CN=C(NC(=S)N(C)C)N(C)C`: the TGI with HL-60(TB) leukemia, in the assay with HT29 colon, with M14 melanoma, with NCI-H226 lung, with NCI-H460 lung and in the assay on OVCAR-5 ovarian was above 100 µM throughout. The molecule also yielded a TGI in the assay on UACC-62 melanoma above 100 µM.

`O=S(=O)(O)c1ccc(N=Nc2nc(C(F)(F)F)c(C(F)(F)F)[nH]2)cc1`: the total growth inhibition concentration (TGI) in the assay with HL-60(TB) leukemia was above 100 µM; with HT29 colon, above 100 µM; in the assay on M14 melanoma it was 46.6 µM; in the assay on NCI-H226 lung, above 100 µM; with NCI-H460 lung it was above 100 µM; with OVCAR-5 ovarian it was 36 µM. This molecule also had a TGI with UACC-62 melanoma of 72.2 µM.

In general, GI50 refers to the concentration that inhibits growth by half. For `COc1cc(NS(C)(=O)=O)ccc1Nc1c2ccccc2nc2ccccc12`, the GI50 in the assay on HL-60(TB) leukemia was 0.298 µM and 0.18 µM and < 0.0379 µM; with HT29 colon it was 1.37 µM and 0.888 µM and 0.991 µM; in the assay on M14 melanoma, 0.526 µM and 0.397 µM and 0.447 µM; with NCI-H226 lung, 0.256 µM and 0.26 µM and 0.22 µM; with NCI-H460 lung, 0.0587 µM and 0.0338 µM and 0.0425 µM; in the assay with OVCAR-5 ovarian, 8.1 µM and 5.64 µM and 6.81 µM. Moreover, the GI50 with UACC-62 melanoma is 0.491 µM and 0.951 µM and 0.705 µM.

As to `CCCCCCCCCCCCCCCCNCCCN(C)CCCN`, the TGI was 42.4 µM with HL-60(TB) leukemia; 35.8 µM with HT29 colon; 30.8 µM in the assay with M14 melanoma; 39.3 µM in the assay with NCI-H226 lung; 34.1 µM in the assay on NCI-H460 lung; 31.7 µM in the assay on OVCAR-5 ovarian. This molecule had a total growth inhibition concentration (TGI) with UACC-62 melanoma of 33.2 µM.

As to `CCCCC(C)C(OC(=O)CC(CC(=O)O)C(=O)O)C(CC(C)CC(O)CCCCC(O)CC(O)C(C)N)OC(=O)CC(CC(=O)O)C(=O)O` (stereo not drawn), the TGI in the assay with HL-60(TB) leukemia, with HT29 colon, with M14 melanoma, with NCI-H226 lung, with NCI-H460 lung and in the assay on OVCAR-5 ovarian was above 100 µM each time. The concentration for total growth inhibition (TGI) in the assay with UACC-62 melanoma is above 100 µM.

As to `O=C(CCC(=O)Nc1ccc(Cl)c(Cl)c1)CC(=O)c1ccc(F)cc1`, the total growth inhibition concentration (TGI) with HL-60(TB) leukemia, in the assay on HT29 colon, in the assay on M14 melanoma, in the assay with NCI-H226 lung, in the assay with NCI-H460 lung and with OVCAR-5 ovarian was above 100 µM throughout. Also, the TGI with UACC-62 melanoma is above 100 µM.

Take `O=C(CC1(O)C(=O)Nc2ccc(Br)cc21)c1ccc(Cl)cc1Cl` (stereo not drawn): the TGI with HL-60(TB) leukemia is 48.3 µM; in the assay with HT29 colon, above 100 µM; in the assay with M14 melanoma, above 100 µM; in the assay on NCI-H226 lung, above 100 µM; in the assay with NCI-H460 lung, above 100 µM; in the assay with OVCAR-5 ovarian it was above 100 µM. The same molecule gave a TGI with UACC-62 melanoma of 33.7 µM.

Turning to `CCOc1ccc2c(c1)[n+]([O-])c(-c1ccc(Br)cc1)c(N)[n+]2[O-]`, the TGI in the assay with HL-60(TB) leukemia, in the assay on HT29 colon, in the assay on M14 melanoma, in the assay with NCI-H226 lung, in the assay with NCI-H460 lung and with OVCAR-5 ovarian was above 100 µM each time. Further, the TGI in the assay with UACC-62 melanoma is above 100 µM.

As for `C[N+](C)(C)CC1CCC/C1=N/O` (stereo not drawn), the concentration for total growth inhibition (TGI) in the assay on HL-60(TB) leukemia is 35.3 µM; in the assay on HT29 colon it was above 100 µM; in the assay on M14 melanoma, above 100 µM; in the assay on NCI-H226 lung, above 100 µM; in the assay with NCI-H460 lung, above 100 µM; with OVCAR-5 ovarian it was above 100 µM. This molecule also yielded a total growth inhibition concentration (TGI) in the assay with UACC-62 melanoma above 100 µM.

Take `O=C(/C=C/c1ccco1)c1ccc(NCc2nc3ccccc3[nH]2)cc1`: the total growth inhibition concentration (TGI) in the assay with HL-60(TB) leukemia is 30.6 µM; in the assay on HT29 colon, 38.3 µM; in the assay on M14 melanoma, 30.9 µM; in the assay with NCI-H226 lung it was 13.8 µM; with NCI-H460 lung it was above 100 µM; with OVCAR-5 ovarian, 31.5 µM. The total growth inhibition concentration (TGI) with UACC-62 melanoma turned out to be 30.2 µM.

As to `S=c1nc(COc2ccc(Cl)cc2Cl)[nH][nH]1`, the concentration for total growth inhibition (TGI) in the assay with HL-60(TB) leukemia was 88.8 µM; in the assay on HT29 colon, above 100 µM; in the assay on M14 melanoma, above 100 µM; in the assay on NCI-H226 lung, above 100 µM; in the assay with NCI-H460 lung, above 100 µM; with OVCAR-5 ovarian, above 100 µM. For the same molecule, in the assay with UACC-62 melanoma, the TGI is above 100 µM.

The record behind these values is PubChem BioAssay (NCI).
